# Laboratory results: PubChem BioAssay AID651650 (Sanford-Burnham Center for Chemical Genomics, 2012)
# Calls of active or inactive are those of the source.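 The calls were made as follows: active = mean IC50 below 20 µM in each of the two panels, so potent in both; inactive = the rest.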
# Molecular target: Neuropilin-1 (Homo sapiens) (UniProt O14786)
# Assay: NRP-1 b1b2 CendR peptide binding inhibitors, dose response, biochemical, FP and AlphaScreen panel (AID 651650)
# Conditions: NRP-1 b1b2 / RPARPAR peptide binding, FP or AlphaScreen
# [1] = AlphaScreen, run 1, individual panel run IC50
# [2] = FP, run 1, individual panel run IC50
# [3] = FP, run 2, individual panel run IC50
# Chain of Neuropilin-1 (Homo sapiens) (O14786 whole entry, looked up): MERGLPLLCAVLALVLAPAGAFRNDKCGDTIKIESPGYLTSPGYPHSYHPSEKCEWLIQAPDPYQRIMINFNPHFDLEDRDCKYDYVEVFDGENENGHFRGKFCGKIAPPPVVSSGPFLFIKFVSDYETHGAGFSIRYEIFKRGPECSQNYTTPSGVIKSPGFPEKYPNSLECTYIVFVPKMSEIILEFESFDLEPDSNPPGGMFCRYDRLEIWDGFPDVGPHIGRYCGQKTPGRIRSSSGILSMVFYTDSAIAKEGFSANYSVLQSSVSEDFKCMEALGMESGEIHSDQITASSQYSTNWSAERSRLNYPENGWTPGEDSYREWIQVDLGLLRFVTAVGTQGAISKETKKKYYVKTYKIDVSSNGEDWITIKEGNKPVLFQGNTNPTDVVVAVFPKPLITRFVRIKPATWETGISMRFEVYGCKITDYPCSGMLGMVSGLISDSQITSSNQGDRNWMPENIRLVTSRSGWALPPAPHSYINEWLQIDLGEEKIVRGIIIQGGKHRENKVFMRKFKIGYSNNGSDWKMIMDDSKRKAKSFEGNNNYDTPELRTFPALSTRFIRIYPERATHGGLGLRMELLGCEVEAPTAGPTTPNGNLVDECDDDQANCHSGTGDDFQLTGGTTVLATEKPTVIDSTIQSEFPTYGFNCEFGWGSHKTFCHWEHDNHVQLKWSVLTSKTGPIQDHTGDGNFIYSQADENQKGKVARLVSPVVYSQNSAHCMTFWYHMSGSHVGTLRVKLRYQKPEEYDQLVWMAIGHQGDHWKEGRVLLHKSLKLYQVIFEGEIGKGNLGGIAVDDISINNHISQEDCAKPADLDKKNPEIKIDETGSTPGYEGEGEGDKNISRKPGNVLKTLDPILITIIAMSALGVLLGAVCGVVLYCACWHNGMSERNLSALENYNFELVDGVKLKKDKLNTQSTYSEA
Compound,"IC50 (AlphaScreen, mean of runs)",IC50 [1] [µM],"IC50 (FP, mean of runs)",IC50 [2] [µM],IC50 [3] [µM]
CCc1ccc(OC(=O)CN2C(=O)c3ccccc3C2=O)cc1,inactive,32,> 95 µM (inactive),> 95,> 95
O=C(NNc1ncnc2c1cnn2-c1ccc(F)cc1)c1ccco1,> 100 µM (inactive),> 100,> 95 µM (inactive),> 95,> 95
Cc1c(CC(=O)O)c(=O)oc2cc(OCc3ccc(F)cc3Cl)ccc12,> 100 µM (inactive),> 100,> 95 µM (inactive),> 95,> 95
CCN1C(=O)C(=O)c2cc(C)ccc21,> 100 µM (inactive),> 100,> 95 µM (inactive),> 95,> 95
O=[N+]([O-])c1ccc(Cc2ccncc2)cc1,> 100 µM (inactive),> 100,> 95 µM (inactive),> 95,> 95
CC1(C)c2ccccc2C(=O)c2ccccc21,> 100 µM (inactive),> 100,> 95 µM (inactive),> 95,> 95
CCn1c(SCC(=O)c2ccccc2)nnc1-c1cccs1,inactive,95.3,> 95 µM (inactive),> 95,> 95
COc1ccc(-c2cc(C)no2)cc1S(=O)(=O)NCc1cccc(C)c1,> 100 µM (inactive),> 100,> 95 µM (inactive),> 95,> 95
CC1CCC(NC(=O)C2CCC(CNS(=O)(=O)c3cccc4cccnc34)CC2)CC1 (stereo not given),> 100 µM (inactive),> 100,> 95 µM (inactive),> 95,> 95

# Other lines, results leading:
"IC50 (AlphaScreen, mean of runs)",IC50 [1] [µM],"IC50 (FP, mean of runs)",IC50 [2] [µM],IC50 [3] [µM],Compound
> 100 µM (inactive),> 100,> 95 µM (inactive),> 95,> 95,Cc1cc(NC(=O)COC(=O)c2ccc(C)c(C)c2)no1
> 100 µM (inactive),> 100,> 95 µM (inactive),> 95,> 95,COc1ccc(N=C2C(=Nc3ccc(OC)cc3)N(c3ccc(N(C)C)cc3)C(=S)N2c2ccc(OC)cc2)cc1
> 100 µM (inactive),> 100,> 95 µM (inactive),> 95,> 95,COc1ccc(C2CC(O)(c3ccccc3)Oc3cc(OC)ccc32)cc1 (stereo not given)
2.27 µM,2.27,> 95 µM (inactive),> 95,> 95,Nc1ccc(C(=O)Nc2ccc(Nc3ccncc3)cc2)c([N+](=O)[O-])c1
> 100 µM (inactive),> 100,> 95 µM (inactive),> 95,> 95,COC(=O)[C@@]1(Cc2ccc(OC)cc2)[C@H]2c3cc(C(=O)N4CCCC4)n(CCN4CCOCC4)c3C[C@H]2CN1C(=O)c1ccccc1
inactive,82,> 95 µM (inactive),> 95,> 95,CNC(=O)NC(=O)C(C)OC(=O)c1c(C)noc1C (stereo not given)
> 100 µM (inactive),> 100,> 95 µM (inactive),> 95,> 95,O=[N+]([O-])c1cc(-c2csc(NCCc3nc4cc(C(F)(F)F)ccc4n3CCCO)n2)ccc1Cl
> 100 µM (inactive),> 100,> 95 µM (inactive),> 95,> 95,O=C(Nc1cccc(S(=O)(=O)N2CCCCC2)c1)c1ccc([N+](=O)[O-])o1
> 100 µM (inactive),> 100,> 95 µM (inactive),> 95,> 95,Cc1cccc(NS(=O)(=O)c2cccs2)c1
